These results are taken from patent publication US20030104090A1, “Supplements containing annatto extracts and carotenoids and methods for using the same” (priority 2000, published 2003).

Data set [1] addresses aldose reductase (Homo sapiens, UniProt P15121). To be noted: found in annatto leaf extract; cited from earlier work.
For data set [2], the system named is tumor cells. To be noted: e.g. human leukemia U937; cited from earlier work.
In data set [3] the test system is caspase-3. To be noted: HL-60 cells; cited from earlier work.
In data set [4] the test system is PPARgamma and PPARalpha. To be noted: 3T3-L1 adipocytes and HepG2 hepatocytes, in vitro; cited from earlier work.
For data set [5], the system named is esterification of retinol. The conditions noted are these: cited from earlier work.
Data set [6] has as its system NIH3T3 cells. To be noted: in combination with lovastatin, without the cytotoxicity of lovastatin alone; cited from earlier work.
The conditions of data set [7]: 100 milligrams per day for 35 days; cited from earlier work.
Data set [8] relates to hippocampal neuronal cells. The conditions noted are these: by suppressing activation of c-Src kinase; cited from earlier work.
The conditions of data set [9]: dietary, pregnant rats; cited from earlier work.
The nature of data set [10]: Serum levels of bixin and norbixin in human volunteers on bixin supplementation (Example 1). To be noted: human test group, 20 milligrams bixin daily as two 10 mg capsules, during supplementation. It is filed as in vivo. The source says: (§1) Two groups of human volunteers (3 individuals in the test group and 5 in the control group) were exposed to high oxidative stress conditions by breathing contaminated air of a high ozone level and a high concentration of smoke over a period of four to five days for one half hour per day. Both groups were given the same diets. Namely, they consumed their normal daily diets but avoided foods rich in carotenoids, particularly foods containing annatto (as a colorant), from two weeks before the exposure until two weeks after the exposure.
During the period of bixin supplementation, the serum level of bixin and norbixin was zero in the control group, while the serum levels of bixin and norbixin in the individuals of the test group reached levels of 12 and 60 micrograms/liter, respectively.

The conditions of data set [11]: rats, cited from earlier work.
The conditions of data set [12]: mice, 66 mg norbixin per kilogram body weight; cited from earlier work.
The conditions of data set [13]: mice and rats on high dietary doses; cited from earlier work.
The test system of data set [14] is DNA. The conditions noted are these: cells exposed to radiation, metal ions and peroxides, cisplatin; cited from earlier work.
Data set [15] relates to thiobarbituric acid-reactive substances. The data set can be described thus: Oxidative stress load in the blood, modified TBAR test and free radical content (Example 1). To be noted: humans exposed to high ozone and smoke, 20 mg bixin daily. It is filed as in vivo, human.
Excerpt: as §1

In data set [16] the test system is WAZ-2T(-SA) mammary tumor cell line. The data set can be described thus: Dietary bixin in mammary tumor development (Example 2). It is filed as in vivo, BALB/c mice. To be noted: for final tumor weight: 50 days after inoculation, control 1.1 grams; for tumor latency (days post inoculation when tumors first palpable): control 30 days. Here is the method:
(§2) Female BALB/c mice and the WAZ-2T(-SA) mammary tumor cell line were used to determine the efficacy of dietary bixin in inhibiting mammary tumor development. Six mice per treatment were fed a semi synthetic AlN-93M diet containing 0, 0.006 or 0.06% bixin. After 14 days, all mice were inoculated with 2500 tumor cells (a cell load which typically produces a 65% tumor incidence in untreated controls). Tumor growth was measured daily for 50 days, at which time blood, liver, spleen, and tumors were removed and evaluated. […] Final tumor weight was 0.3 grams at 0.06% dietary bixin, 0.7 grams at 0.006% and 1.1 grams for the control without dietary bixin. Tumor latency (number of days post inoculation when mammary tumors were first palpable) was 45 days at 0.06% dietary bixin level, 38 days at 0.006%, and 30 days for the control. Results were determined to be statistically significant at the P<0.05 level. […] It may thus be concluded that the dietary bixin protected the mice from mammary tumor development by triggering genes of immune related systems rather than by an antioxidant action at the cellular level.

The test system of data set [17] is PIM-1, p-53, BAX, and BCL-2. The data set can be described thus: mRNA expression in isolated splenocytes cultured with concanavalin-A (Example 2). In kind it is cell-based, BALB/c mice. The conditions noted are these: splenocytes of mice fed dietary bixin. The method, then:
as §2

The nature of data set [18]: Acceptable daily intake (JECFA, 1982). Further details: species or system human. The conditions noted are these: worked out from 0.065 mg/day/kg. The source says: Bixin and its hydrolyzed form, norbixin, are used as coloring agents for human consumption, mainly in cheese (see Collins, “The role of annatto in food colouring,” Food Ingredients and Processing International, 23-27 (February 1992)). For some coloring applications, methylbixin has been commercially prepared by esterification of the […] of the bixin molecule (Zechmelster, et al., “A stereochernical study of methylbixin,” J. Am. Chem. Soc., 66:322330 (1944); Jondiko, et al., “Terpenoids and an apocarotenoid from seeds of B. orellana,” Phytochemistry, 28:3159-3162 (1989)). As a natural color additive to foods, particularly cheeses, bixin is typically added at concentrations of about 1 to 25 mg bixin per kg of food, although higher quantities may be used for some cheeses. Estimates of average daily intake of bixin compounds (usually bixin and norbixin) are of the order of 0.3 to 3 mg per day per person, although some studies report higher values, through the consumption of products such as cheeses, cake decoration, breakfast cereals, ice cream, snacks, margarine, and other foods in which bixin extract is added during food manufacture to provide color. The maximum ADI (acceptable daily intake) established by the Joint FAO/WHO Committee on Food Additives (JECFA, 1982) is 0.065 mg/day/kg body weight, expressed as bixin. […]

The conditions of data set [19]: JECFA 1982, expressed as bixin; cited from earlier work.
For data set [20] the following is noted: after human ingestion; cited from earlier work.
Data set [21] concerns C3H- 1 O-T 1-2 cells. To be noted: same level as lutein and canthaxanthin, surpassed only by alpha-tocopherol; cited from earlier work.
In data set [22] the test system is formation of cancer cells. The conditions noted are these: carcinogenesis with methylcholantrene; cited from earlier work.
The conditions of data set [23]: rats, oral administration, gamma-radiation; cited from earlier work.
Data set [24] relates to Connexin-43. The conditions noted are these: cited from earlier work.
For data set [25], the system named is lipoxidase. The conditions noted are these: cited from earlier work; for antioxidant activity and lipoxidase inhibition: in vitro, isolated cell or enzyme systems.
For data set [26], the system named is xenobiotic enzymes. To be noted: rat, dietary supplementation; cited from earlier work.
The conditions of data set [27]: cited from earlier work.

Like-named read-outs stand apart in the source and are kept apart here.

Consider isoscutellarein, for which the aldose reductase inhibition result in data set [1] was “aldose reductase inhibitor”.
`CC(C)=CCC/C(C)=C/CC/C(C)=C/CC/C(C)=C/CO` [geranylgeraniol]: the induction of apoptosis entry in data set [2] is “very potent inducer of apoptosis”. The “activation of caspase-3” value in data set [3] was “selective activation”. For the same molecule, the “lipid metabolic target genes” value in [4] is “upregulates”. For the same molecule, in [5], the “esterification of retinol into inactive retinyl esters” value is given as “inhibits esterification”. The “aberrant (oncogenic) signaling between cells” value in data set [6] is given as “selectively inhibits”.
tocotrienol: the “reduction of total cholesterol levels” value in [7] is 20%. Moreover, the “protection from glutamate-induced death” value in data set [8] is given as “protects”. The “bioavailability to maternal and fetal brains” value in data set [9] was “bioavailable”.
Take `CC(/C=C/C=C(C)/C=C/C(=O)O)=C\C=C\C=C(C)\C=C\C=C(C)\C=C\C(=O)O` (stereo in doubt) [norbixin]: in data set [10], the “serum level of norbixin” value was found to be 60 micrograms/liter. For the same molecule, the hyperglycemia induced is given as 27% in data set [11] (8.5 mg dietary norbixin/kg body weight) and 53% in [11] (74 mg/kg). Moreover, the hypoglycemia induced entry in [12] is listed as “up to 22%”. Further, the “DNA breakage in liver and kidney” value in data set [13] is “no detectable DNA breakage”. Further, the “DNA protection in vitro” value in data set [14] is reported as “protects DNA”.
As to `COC(=O)/C=C/C(C)=C\C=C\C(C)=C\C=C\C=C(C)\C=C\C=C(C)\C=C\C(=O)O` [bixin], the “serum level of bixin” value in data set [10] is given as 12 micrograms/liter. Moreover, the “oxidative stress level of the blood (modified TBAR test)” value in data set [15] (control group high) is reported as “remained normal”. Further, the “free radical content of the blood” value in data set [15] (same relation as TBAR (control high, test normal)) is recorded as “same relation was found”. In data set [16] (0.006% dietary bixin), the final tumor weight was determined as 0.7 grams and the “tumor latency (days post inoculation when tumors first palpable)” value was 38 days. In [16] (0.06% dietary bixin), the final tumor weight came out at 0.3 grams and the “tumor latency (days post inoculation when tumors first palpable)” value is reported as 45 days. For the same molecule, the “mammary tumor incidence and tumor growth rate” value in data set [16] (0.06% dietary bixin, versus 0.006% and control) was “lowest”. Besides, in [17], the “mRNA expression levels of PIM-1, p-53, BAX, and BCL-2” value is listed as “dose dependent effects”. Moreover, in data set [18], the “maximum ADI for average human weight of 60 kg” value is given as 3.9 mg per day. Besides, the “maximum ADI (acceptable daily intake)” value in data set [19] is 0.065 mg/day/kg body weight. In data set [20], the “absorption into the blood stream” value is “readily absorbed”. For the same molecule, in data set [21], the “inhibition of lipid peroxidation” value is recorded as “potent inhibitor”. In addition, the “prevention of formation of cancer cells” value in [22] was “did not prevent”. Further, in data set [23], the “level of lipid peroxides in serum and liver” value is “significantly reduced”. Besides, the Connexin-43 gene expression result in data set [24] is “does not up-regulate”. Moreover, the “lipoxydase inhibition, modulation of lipid hydroperoxide formation” value in [25] (Canfield et al.) is “lipoxydase inhibitor”. For the same molecule, the “antioxidant activity and lipoxidase inhibition” value in [25] was “strong antioxidant activity and lipoxidase inhibition”. Moreover, the “effect on xenobiotic enzymes of lung and kidney” value in data set [26] is “induction effect”. Also, in [14], the “DNA protection in vitro” value was “protects DNA”.
With `COC(=O)/C=C/C(C)=C/C=C/C(C)=C/C=C/C=C(C)/C=C/C=C(C)/C=C/C(=O)OC` [methylbixin], the “antioxidant activity and lipoxidase inhibition” value in [25] was “strong antioxidant activity and lipoxidase inhibition”.
Take vitamin E: in [27] (humans with type 2 diabetes), the “urinary albumin excretion rate” value is “significantly reduced”. In addition, in data set [27] (patients with diabetes), the “plasma levels of C-reactive molecules” value was “decreased”.
